Experimental data from ChEMBL document CHEMBL1135448, “Synthesis and SAR of N-substituted dibenzazepinone derivatives as novel potent and selective alpha(V)beta(3) antagonists” (Bioorg Med Chem Lett, 2002).
“And” between values parts separate entries of the source, which are not always exact repeats. Equal values may be shown once. The source made the active and inactive calls. The rule behind the calls is not given here.

Experiments:
Caco-2 = experiment: Apparent permeability constant (Papp) was evaluated for Caco-2 model permeation; assay type: functional, cell-based; conditions: Homo sapiens
Homo sapiens = species on record: Homo sapiens; experiment: Evaluated for primary human smooth muscle cell migration; assay type: functional
[1] = target: Integrin alpha-5/beta-1 (Homo sapiens) (UniProt P05556+P08648); experiment: Cell adhesion via alpha5-beta1 integrin to fibronectin at 10e-5 M (Not active); assay type: protein-complex assay
[2] = target: Integrin alpha-IIb/beta-3 (Homo sapiens, UniProt P05106+P08514); experiment: Displacement of alphaIIb-beta3 integrin from fibrinogen by ELISA; assay type: protein-complex assay
[3] = target: Integrin alpha-4/beta-1 (Homo sapiens) (UniProt P05556+P13612); experiment: Cell adhesion of alpha4-beta1 integrin to fibronectin at 10e-5 M (Not active); assay type: protein-complex assay
Integrin alpha-V/beta-3 [4] = target: T1, Integrin alpha-V/beta-3 (Homo sapiens, UniProt P05106+P06756); experiment: Affinity against alpha V-beta3 integrin via competitive ELISA using vitronectin as natural ligand; assay type: protein-complex assay
Integrin alpha-V/beta-3 [5] = target: T1, Integrin alpha-V/beta-3; experiment: Adhesion of recombinant alphaV-beta3 integrin expressed in CHO-K1 to osteopontin (OPN); assay type: cell-based
Integrin alpha-V/beta-3 [6] = target: T1, Integrin alpha-V/beta-3; experiment: Displacement of vitronectin from alphaV-beta3 integrin in ELISA (Not active); assay type: protein-complex assay
Integrin alpha-V/beta-3 [7] = target: T1, Integrin alpha-V/beta-3; experiment: Cell adhesion of alphaV-beta3 integrin expressed in CHO-K1 cell to osteopontin (OPN); assay type: cell-based

Row | Compound | IC50 (Integrin alpha-V/beta-3 [4]) | further results
1 | O=C(O)CC1c2ccccc2C(=O)N(CC(=O)NCc2ccc(NC(=O)NCc3ccccc3)cc2)c2ccccc21 (centres undefined) | 23 nM | 
2 | O=C(O)CC1c2ccccc2C(=O)N(CCNCc2ccc(NC(=O)NCc3ccccc3)cc2)c2ccccc21 (centres undefined) |  | IC50 (Integrin alpha-V/beta-3 [6]): Not Active
3 | O=C(O)CC1c2ccccc2C(=O)N(CC(=O)NCc2ccc(NC(=O)OCc3ccccc3)cc2)c2ccccc21 (centres undefined) | 10000 nM | 
4 | N=C(N)c1csc(CNC(=O)CN2C(=O)c3ccccc3C(CC(=O)O)c3ccccc32)c1 (centres undefined) | 1000 nM | 
5 | O=C(O)CC1c2ccccc2C(=O)N(CCOCc2ccc(NC(=O)NCc3ccccc3)cc2)c2ccccc21 (centres undefined) |  | IC50 (Integrin alpha-V/beta-3 [6]): Not Active
6 | O=C(O)CC1c2ccccc2C(=O)N(CC(=O)NCc2ccc(NC(=O)CCc3ccccc3)cc2)c2ccccc21 (centres undefined) |  | IC50 (Integrin alpha-V/beta-3 [6]): Not Active
7 | O=C(O)CC1c2ccccc2C(=O)N(CCCCc2ccc(NC(=O)NCc3ccccc3)cc2)c2ccccc21 (centres undefined) | 10000 nM | 
8 | Cc1cc2nc(-c3ccc(CNC(=O)CN4C(=O)c5ccccc5C(CC(=O)O)c5ccccc54)cc3)[nH]c2cc1C (centres undefined) | 220 nM | 
9 | O=C(O)CC1c2ccccc2C(=O)N(CC(=O)NCc2cc(CNc3ccccn3)cs2)c2ccccc21 (centres undefined) | 220 nM | 
10 | NC(N)=Nc1ccc(CNC(=O)CN2C(=O)c3ccccc3C(CC(=O)O)c3ccccc32)cc1 (centres undefined) | 84 nM | 
11 | O=C(O)CC1c2ccccc2C(=O)N(CC(=O)NCc2ccc(OC(=O)NCc3ccccc3)cc2)c2ccccc21 (centres undefined) | 10000 nM | 

Continued, in another order:

Row | IC50 (Integrin alpha-V/beta-3 [4]) | Compound | further results
12 | 1.6 nM | O=C(O)CC1c2ccccc2C(=O)N(CC(=O)NC[C@H]2CC[C@H](Nc3nc4ccccc4[nH]3)CC2)c2ccccc21 (some centres undefined) | Papp (Caco-2): 2.7e-06 cm/s; Inhibition (Homo sapiens): 100%; inhibition [1]: inactive; IC50 [2]: > 100 µM; inhibition [3]: inactive; IC50 (Integrin alpha-V/beta-3 [5]): 40 nM
13 | 500 nM | O=C(O)CC1c2ccccc2C(=O)N(CC(=O)NCc2ccc(-c3nc4ccccc4[nH]3)s2)c2ccccc21 (centres undefined) | 
14 | 14.9 nM | O=C(O)CC1c2ccccc2C(=O)N(CC(=O)NCCCCNc2nc3ccccc3[nH]2)c2ccccc21 (centres undefined) | 
15 | 10000 nM | O=C(O)CC1c2ccccc2C(=O)N(CC(=O)NCc2cccc(-c3nc4ccccc4[nH]3)c2)c2ccccc21 (centres undefined) | 
16 | 74 nM | O=C(O)CC1c2ccccc2C(=O)N(CC(=O)NCc2ccc(-c3nc4ccccc4[nH]3)cc2)c2ccccc21 (centres undefined) | 
17 | 5000 nM | O=C(O)CC1c2ccccc2C(=O)N(CC(=O)Nc2ccc(-c3nc4ccccc4[nH]3)cc2)c2ccccc21 (centres undefined) | 
18 | 500 nM | O=C(O)CC1c2ccccc2C(=O)N(CC(=O)NCc2cc(-c3nc4ncccc4[nH]3)cs2)c2ccccc21 (centres undefined) | 
19 | 100 nM | O=C(O)CC1c2ccccc2C(=O)N(CC(=O)NCc2cc(-c3nc4ccccc4[nH]3)cs2)c2ccccc21 (centres undefined) | 
20 | 5000 nM | O=C(O)CC1c2ccccc2C(=O)N(CC(=O)NCc2ccc(Nc3ccccn3)cc2)c2ccccc21 (centres undefined) | 
21 | 1000 nM | O=C(O)CC1c2ccccc2C(=O)N(CC(=O)NCCCNc2ccccn2)c2ccccc21 (centres undefined) | 
22 | 380 nM | O=C(O)CC1c2ccccc2C(=O)N(CC(=O)NCCc2ccc(-c3nc4ccccc4[nH]3)cc2)c2ccccc21 (centres undefined) | 
23 | 7 nM and 7.3 nM | O=C(O)CC1c2ccccc2C(=O)N(CC(=O)NCc2ccc(Nc3nc4ccccc4[nH]3)cc2)c2ccccc21 (centres undefined) | Inhibition (Homo sapiens): 67%; IC50 (Integrin alpha-V/beta-3 [7]): 100 nM; inhibition [1]: inactive; IC50 [2]: > 100 µM; inhibition [3]: inactive
24 | 12.9 nM | O=C(O)CC1c2ccccc2C(=O)N(CC(=O)NCCCCCNc2nc3ccccc3[nH]2)c2ccccc21 (centres undefined) | 
25 | 1000 nM | O=C(O)CC1c2ccccc2C(=O)N(CC(=O)NCc2nc3ccccc3[nH]2)c2ccccc21 (centres undefined) | 
26 | 620 nM | O=C(O)CC1c2ccccc2C(=O)N(CC(=O)NCc2ccc(-c3nc4cc(Cl)ccc4[nH]3)cc2)c2ccccc21 (centres undefined) | 
27 | 1000 nM | O=C(O)CC1c2ccccc2C(=O)N(CC(=O)NCc2nc(-c3nc4ccccc4[nH]3)cs2)c2ccccc21 (centres undefined) | 
28 | 200 nM | O=C(O)CC1c2ccccc2C(=O)N(CC(=O)NCc2ccc(-c3nc4ccccc4[nH]3)nc2)c2ccccc21 (centres undefined) | 
